Results taken from ChEMBL document CHEMBL4364346, “Structure optimization of a new class of PPARγ antagonists” (Bioorg Med Chem, 2019).
In brackets after ≈: the same amount, converted by molar mass. Activity calls are given as the source filed them. The calls are words filed in the database; no cut-off is given here.

Assays:
[1] = target: T1, Retinoic acid receptor RXR-alpha (Homo sapiens) (UniProt P19793); assay: Agonist activity at recombinant human pFA-CMV fused RXRalpha LBD transfected in HEK293T cells assessed as RXRalpha activation at 1 uM incubated for 12 to 14 hrs by dual glo luciferase reporter gene assay; assay type: cell-based
T1 sequence (whole entry): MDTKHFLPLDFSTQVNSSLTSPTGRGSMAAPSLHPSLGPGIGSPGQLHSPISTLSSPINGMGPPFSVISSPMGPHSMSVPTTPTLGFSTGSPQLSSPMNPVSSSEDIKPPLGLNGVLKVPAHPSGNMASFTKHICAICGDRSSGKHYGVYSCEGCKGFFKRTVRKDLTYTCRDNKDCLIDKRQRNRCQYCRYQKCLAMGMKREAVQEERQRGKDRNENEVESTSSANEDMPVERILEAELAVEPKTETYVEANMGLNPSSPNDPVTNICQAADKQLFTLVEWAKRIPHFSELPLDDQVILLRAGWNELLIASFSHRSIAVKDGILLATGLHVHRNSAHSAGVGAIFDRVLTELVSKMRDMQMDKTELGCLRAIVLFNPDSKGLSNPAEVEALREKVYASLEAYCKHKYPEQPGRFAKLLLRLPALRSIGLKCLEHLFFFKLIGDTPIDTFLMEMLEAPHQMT

[2] = AUC (0 to 4 hrs) in Swiss CD1 mouse at 10 mg/kg, ip measured upto 4 hrs by LC-MS analysis; assay type: ADME, organism-based; design: time < 4 hr, dose 10 mg/kg, route intraperitoneal; conditions: in vivo
[3] = Solubility of compound in PBS buffer pH 7.4 with 1% DMSO measured after 1 and 24 hrs; assay type: physicochemical; conditions: PBS buffer with 1% DMSO
[4] = target: T2, Peroxisome proliferator-activated receptor delta (Homo sapiens) (UniProt Q03181); assay: Antagonist activity at recombinant human pFA-CMV fused PPARdelta LBD transfected in HEK293T cells assessed as reduction in L165041-induced PPARdelta activation at 1 uM incubated for 12 to 14 hrs by dual glo luciferase reporter gene assay; assay type: cell-based
T2 sequence (whole entry): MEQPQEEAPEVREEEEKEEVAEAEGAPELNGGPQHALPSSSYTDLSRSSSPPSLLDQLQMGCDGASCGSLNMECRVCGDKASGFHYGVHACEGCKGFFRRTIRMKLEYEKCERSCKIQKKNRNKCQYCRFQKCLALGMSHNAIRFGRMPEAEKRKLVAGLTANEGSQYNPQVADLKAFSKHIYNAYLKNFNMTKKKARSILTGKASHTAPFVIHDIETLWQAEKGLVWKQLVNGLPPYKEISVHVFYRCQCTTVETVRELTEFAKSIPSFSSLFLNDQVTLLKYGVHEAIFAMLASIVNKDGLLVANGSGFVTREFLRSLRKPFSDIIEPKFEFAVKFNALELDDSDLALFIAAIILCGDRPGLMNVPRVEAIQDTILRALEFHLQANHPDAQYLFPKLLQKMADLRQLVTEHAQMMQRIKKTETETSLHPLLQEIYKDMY

[5] = target: T1, Retinoic acid receptor RXR-alpha (Homo sapiens); assay: Antagonist activity at recombinant human pFA-CMV fused RXRalpha LBD transfected in HEK293T cells assessed as reduction in bexarotene-induced RXRalpha activation at 1 uM incubated for 12 to 14 hrs by dual glo luciferase reporter gene assay; assay type: cell-based
[6] = Tmax in Swiss CD1 mouse at 1 mg/kg, ip measured upto 7 hrs by LC-MS analysis; assay type: ADME, organism-based; conditions: in vivo
[7] = target: T3, Peroxisome proliferator-activated receptor gamma (Homo sapiens, UniProt P37231); assay: Antagonist actvity in sGFP-tagged PPARgamma LBD (unknown origin) assessed as inhibition of rosiglitazone-induced PPARgamma activation incubated for 1 hr in presence of CBP-1 cofactor peptide by HTRF based cofactor recruitment assay
T3 sequence (P37231 whole entry): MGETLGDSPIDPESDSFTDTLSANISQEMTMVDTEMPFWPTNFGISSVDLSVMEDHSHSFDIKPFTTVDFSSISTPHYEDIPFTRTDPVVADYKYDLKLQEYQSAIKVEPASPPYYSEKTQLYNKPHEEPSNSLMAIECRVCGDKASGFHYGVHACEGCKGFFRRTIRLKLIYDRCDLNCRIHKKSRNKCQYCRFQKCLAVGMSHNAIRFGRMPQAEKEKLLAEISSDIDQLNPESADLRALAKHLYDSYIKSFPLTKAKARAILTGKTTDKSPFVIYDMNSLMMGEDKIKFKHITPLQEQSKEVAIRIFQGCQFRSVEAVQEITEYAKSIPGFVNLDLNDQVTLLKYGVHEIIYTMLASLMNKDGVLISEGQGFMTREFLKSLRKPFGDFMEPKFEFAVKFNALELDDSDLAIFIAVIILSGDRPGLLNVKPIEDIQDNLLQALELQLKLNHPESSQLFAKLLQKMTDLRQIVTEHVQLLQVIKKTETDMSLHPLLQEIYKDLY

[8] = target: T2, Peroxisome proliferator-activated receptor delta (Homo sapiens); assay: Agonist activity at recombinant human pFA-CMV fused PPARdelta LBD transfected in HEK293T cells assessed as PPARdelta activation at 1 uM incubated for 12 to 14 hrs by dual glo luciferase reporter gene assay; assay type: cell-based

Row | SMILES | Activity [1] | AUC(0-t) at 4 h [2] [ng·h/mL] | solubility at 24 h [3] [µM] | Activity [4] | Activity [5] | Tmax [6] [h] | IC50 [7] [µM] | Activity [8]
1 | CCC/C(=C\c1cc(OCc2ccc3nc(C(F)(F)F)cc(OC)c3c2)ccc1OCCN1CCN(C)CC1)C(=O)O | inactive | 598 | 200 to 250 (≈ 118 to 147 µg/mL) | inactive | inactive | 1 | 6.4 | inactive
2 | CCC/C(=C\c1cc(OCc2ccc3nc(C(F)(F)F)cc(OC)c3c2)ccc1OCC1CCN(C)CC1)C(=O)O | inactive | 650 | 125 to 150 (≈ 71.6 to 85.9 µg/mL) | inactive | inactive | 1 | – | inactive
